This is an account of results in publication PMC5780263 (Xenobiotica; the fate of foreign compounds in biological …, 2017).

One series has as its target T1, CYP2A6 (Homo sapiens, UniProt P11509).
T1 sequence (P11509 1-494): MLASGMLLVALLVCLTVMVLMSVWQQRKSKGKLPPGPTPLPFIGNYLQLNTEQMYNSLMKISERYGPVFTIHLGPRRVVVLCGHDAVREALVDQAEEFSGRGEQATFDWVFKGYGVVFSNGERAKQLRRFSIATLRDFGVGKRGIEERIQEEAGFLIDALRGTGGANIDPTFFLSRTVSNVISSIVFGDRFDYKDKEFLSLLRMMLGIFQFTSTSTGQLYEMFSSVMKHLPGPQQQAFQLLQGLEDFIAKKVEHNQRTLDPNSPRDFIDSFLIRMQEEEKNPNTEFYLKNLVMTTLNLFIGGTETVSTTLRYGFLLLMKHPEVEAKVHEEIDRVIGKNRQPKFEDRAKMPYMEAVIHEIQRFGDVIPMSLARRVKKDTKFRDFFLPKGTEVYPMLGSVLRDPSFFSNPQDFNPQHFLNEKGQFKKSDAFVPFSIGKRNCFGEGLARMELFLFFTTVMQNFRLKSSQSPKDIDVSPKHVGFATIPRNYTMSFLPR
Particulars: previous studies, ref Shimada et al., 2016a; cited from earlier work.

Series [1] concerns CYP1A1, 1A2, 1B1.1, 1B1.3, 2D6, 2E1, 2C9, and 3A4. Put plainly: Spectral binding titration with other purified human P450 enzymes. Particulars: authors' assay conditions.
The next series addresses T2, CYP1A1 (Homo sapiens, UniProt P04798).
T2 sequence (P04798 1-512): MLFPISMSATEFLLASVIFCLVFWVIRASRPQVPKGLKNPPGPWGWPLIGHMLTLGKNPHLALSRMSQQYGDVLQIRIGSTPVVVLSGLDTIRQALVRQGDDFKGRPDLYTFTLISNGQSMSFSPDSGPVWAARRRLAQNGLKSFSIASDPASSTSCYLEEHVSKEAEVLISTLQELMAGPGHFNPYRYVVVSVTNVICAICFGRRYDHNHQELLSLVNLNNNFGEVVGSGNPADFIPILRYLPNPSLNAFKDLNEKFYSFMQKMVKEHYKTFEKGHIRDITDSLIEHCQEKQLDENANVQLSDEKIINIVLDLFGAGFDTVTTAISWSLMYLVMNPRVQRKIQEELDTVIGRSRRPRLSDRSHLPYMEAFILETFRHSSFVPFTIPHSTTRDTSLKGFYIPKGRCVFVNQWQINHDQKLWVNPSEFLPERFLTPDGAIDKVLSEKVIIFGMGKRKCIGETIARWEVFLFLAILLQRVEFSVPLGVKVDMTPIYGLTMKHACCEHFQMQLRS
Format: in vitro ADME. As to conditions: 10 µM substrate, 37 °C, 20 min, HPLC-fluorescence.

In a further series the target is T3, CYP1B1.1 (Homo sapiens, UniProt Q16678).
T3 sequence (Q16678 1-543): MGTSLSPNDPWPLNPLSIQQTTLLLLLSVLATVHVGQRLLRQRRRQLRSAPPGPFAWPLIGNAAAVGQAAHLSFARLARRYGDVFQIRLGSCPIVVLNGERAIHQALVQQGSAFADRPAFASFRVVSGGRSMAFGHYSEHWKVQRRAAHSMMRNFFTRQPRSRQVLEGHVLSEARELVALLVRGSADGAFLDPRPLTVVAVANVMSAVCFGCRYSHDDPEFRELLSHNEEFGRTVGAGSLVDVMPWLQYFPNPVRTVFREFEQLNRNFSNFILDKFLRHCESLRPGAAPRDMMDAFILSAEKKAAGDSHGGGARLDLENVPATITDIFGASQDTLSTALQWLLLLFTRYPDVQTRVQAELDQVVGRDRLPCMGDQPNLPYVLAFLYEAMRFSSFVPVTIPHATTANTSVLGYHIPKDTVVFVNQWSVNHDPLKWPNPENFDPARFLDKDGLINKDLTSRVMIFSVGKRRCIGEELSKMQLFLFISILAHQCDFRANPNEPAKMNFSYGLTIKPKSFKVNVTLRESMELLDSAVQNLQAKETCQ
Format: in vitro ADME. As to conditions: 10 µM substrate, 37 °C, 20 min, HPLC-fluorescence.

For another series, the target named is T4, CYP2A13.1 (Homo sapiens, UniProt Q16696).
T4 sequence (Q16696 31-494 limits assumed): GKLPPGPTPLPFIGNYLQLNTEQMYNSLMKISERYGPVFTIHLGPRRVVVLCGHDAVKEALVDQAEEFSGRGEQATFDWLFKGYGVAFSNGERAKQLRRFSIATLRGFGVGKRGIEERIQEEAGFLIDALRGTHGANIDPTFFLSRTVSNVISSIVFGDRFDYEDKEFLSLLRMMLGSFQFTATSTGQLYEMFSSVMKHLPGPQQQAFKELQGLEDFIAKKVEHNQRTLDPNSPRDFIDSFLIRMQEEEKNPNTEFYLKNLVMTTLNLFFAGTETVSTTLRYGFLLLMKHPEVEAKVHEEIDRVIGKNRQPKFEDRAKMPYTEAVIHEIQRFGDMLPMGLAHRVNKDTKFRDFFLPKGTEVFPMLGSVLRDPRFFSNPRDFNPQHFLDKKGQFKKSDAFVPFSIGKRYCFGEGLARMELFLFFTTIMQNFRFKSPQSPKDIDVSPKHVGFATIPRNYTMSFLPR
The class given is in vitro ADME. Particulars: 10 µM substrate, 37 °C, 20 min, b5 added, HPLC-fluorescence.

Regarding `O=[N+]([O-])c1ccc2ccc3cccc4ccc1c2c34` [1-nitropyrene], the “Type I binding spectra” value on CYP2A6 is “do not show detectable Type I binding spectra”.

As for `CC(=O)c1ccc2ccc3cccc4ccc1c2c34` [1-acetylpyrene], the “Type I binding spectra” value on CYP2A6 is on record as “do not show detectable Type I binding spectra”.

Take `Clc1ccc2ccc3cccc4ccc1c2c34` [1-chloropyrene]: the Spectral changes entry in series [1] was “did not show any detectable spectral changes”. The Hydroxylated products formed result on CYP1A1 was “produced 8-, 6-, and 3-hydroxylated products at significant levels”; at CYP1B1.1 it was “only formed the 6-hydroxy product”; at CYP2A13.1, “catalyzed hydroxylation at the 8- and 3-positions”.

Regarding `c1cc2ccc3cccc4ccc(c1)c2c34` [pyrene], the “Type I binding spectra” value on CYP2A6 is reported as “do not show detectable Type I binding spectra”.
